Results as given in patent US5177059A, “Polymyxin B conjugates” (Sandoz Ltd., priority 1990, dated 1993).

Key:
Assay type in all cases: in vivo
non-sensitized mice = experiment: PMB (native and conjugated forms) induced lethality, i.p.; details: i.p. injection, lethality monitored for 7 days
Description: B. PMB (native and conjugated forms) induced lethality
PMB (native and conjugated forms) are evaluated for their inherent toxicity in non-sensitized mice. Male CB57BL/c mice (18-22 g, Jackson Labs) are used throughout this study. Animals are given either native PMB or conjugated PMB by intraperitoneal injection (0.5 ml/animal) and lethality monitored for 7 days. The LD100 is determined by varying the dose of PMB (native and conjugated forms) that result in 100% lethality. From 10-20 animals are used for each dose.

endotoxin (0111B4) = experiment: PMB anti-endotoxin evaluations: protection from endotoxin-induced lethality in galactosamine-hypersensitized mice
Description: A. Endotoxin-induced lethality
Male CB57BL/c mice (18-22 g, Jackson Labs) are used throughout this study. Animals are given endotoxin (0111B4 from List Biologicals, Palo Alto, Calif.) and galactosamine to hypersensitize, as described in Galanos et al., 1979. Proc. Natl. Acad. Sci. USA 76: 5939. The endotoxin and galactosamine (320 mg/kg) are injected intraperitoneally in 0.5 ml pyrogen-free isotonic saline per animal between 13:00 and 15:00 to avoid diurnal variation. From a dose-response study, it is determined that 0.01 mg/kg endotoxin produces 85-95% lethality. Animals are observed each day for 6 days after injection.
C. PMB anti-endotoxin evaluations
PMB (native and conjugated forms) are evaluated for their ability to neutralize endotoxin by either pre-mixing with endotoxin for 60 minutes before i.p. injection or by coadministration of the substances as a single i.p. injection. While the concentration of the PMB (native and conjugated forms) are varied, the volume of each injection is kept constant at 0.5 ml per animal. The protection by the conjugated PMB was compared to the native PMB (in terms of mg protein/kg). Controls (endotoxin, galactosamine, and vehicle) are included as well in each study. Each group has between 10-17 animals. […]
The Therapeutic Index (TI) for PMB (native and conjugated) forms is determined by dividing the LD100 by the PD100. […]

normal test animal = experiment: i.v. toxicity (LD0, LD100), lethality monitored over 7 days
Description: LD0 is the highest non-toxic dose of PMB or its conjugate.
LD100 is the dose of PMB or its conjugated form which results in 90-100% lethality when injected into a normal test animal.
The "ultra pure" PMB-conjugate has a suprising reduction in toxicity as compared with native PMB. […] Comparisons in the table below are made between the highest non-toxic dose of PMB (native or conjugated)
^1 PMB (native or conjugate) given by i.v. injection and lethality
monitored over 7 days. LD0 is the highest nontoxic dose which can be
injected into a normal test animal.

E.coli 0111B4 endotoxin = experiment: i.v. protection against LD90 endotoxin challenge (endotoxin-induced lethality test); details: i.v. injection 1-3 minutes before an LD90 i.p. injection of E.coli 0111B4 endotoxin (0.5 μg/kg)
Description: The resulting "ultra pure" PMB-conjugate is compared to native PMB in an endotoxin-induced leathality test as described in Example 3C supra.
At 1 mg/kg i.v., the ultra-pure PMB-conjugate gave >70% protection against a LD90 endotoxin challenge for at least 6 hours. […] Therefore the PMB-conjugate is suitable for prophylactic use.
^2 PMB (native or conjugate) given by i.v. injection 1-3 minutes
before an LD90 i.p. injection of E.coli 0111B4 endotoxin (0.5

polymyxin B [Native PMB]
LD100 (non-sensitized mice): 25 mg/kg | PD100 (endotoxin (0111B4); PMB or conjugate allowed to react with the endotoxin for 60 min before i.p. injection): 2 mg/kg | PD100 (endotoxin (0111B4); i.p., dose giving >95% survival, pre-mixing or coadministration with endotoxin not stated for the row): 2 mg/kg | LD100 (normal test animal; i.v.): 9.5 mg/kg | LD0 (highest non-toxic dose) (normal test animal; i.v. injection, lethality monitored over 7 days): 5 mg/kg | PD100 (E.coli 0111B4 endotoxin): 0.1 mg/kg
